Measured values published in ChEMBL document CHEMBL4130359, “Indazole-based ligands for estrogen-related receptor α as potential anti-diabetic agents” (Eur J Med Chem, 2017).

Key:
[1] = molecular target: Peroxisome proliferator-activated receptor alpha (Homo sapiens, UniProt Q07869); experiment: Agonist activity at recombinant GST-tagged human PPARalpha LBD assessed as fluorescein-labeled coactivator peptide recruitment preincubated with enzyme followed by coactivator addition by LanthaScreen TR-FRET assay
Rattus norvegicus [2] = experiment: Effect on IL1RN gene expression in epididymal white adipose tissue of Zucker rat sub-chronic fa/fa prediabetic model at 10 mg/kg, po qd for 15 days by microarray analysis relative to control; format: functional
Rattus norvegicus [3] = experiment: Effect on HMGCS1 gene expression in epididymal white adipose tissue of Zucker rat sub-chronic fa/fa prediabetic model at 10 mg/kg, po qd for 15 days by microarray analysis relative to control; format: functional
[4] = Cmax in Zucker rat sub-chronic fa/fa prediabetic model at 3 mg/kg, po qd measured on day 1 post dose; format: ADME, organism-based; set-up: dose 3 mg/kg, route oral; conditions: in vivo
Rattus norvegicus [5] = experiment: Toxicity in […] chronic ob/ob model assessed as body weight at 3 mg/kg, po qd for 28 days measured on day 28 post last dose (reference value: 47.3 +/- 1.06 g); format: organism-based; conditions: in vivo, 672 h
Rattus norvegicus [6] = experiment: Effect on PPARGC1B gene expression in epididymal white adipose tissue of Zucker rat sub-chronic fa/fa prediabetic model at 10 mg/kg, po qd for 15 days by microarray analysis relative to control; format: functional
Rattus norvegicus [7] = experiment: Effect on HLA-DRA gene expression in epididymal white adipose tissue of Zucker rat sub-chronic fa/fa prediabetic model at 10 mg/kg, po qd for 15 days by microarray analysis relative to control; format: functional
Rattus norvegicus [8] = experiment: Toxicity in Zucker rat sub-chronic fa/fa prediabetic model assessed as epididymal white adipose tissue weight at 10 mg/kg, po qd for 31 days measured on day 32 (reference value: 13.9 +/- 0.6 g); format: organism-based; conditions: in vivo, 744 h
Rattus norvegicus [9] = experiment: Effect on ACOT4 gene expression in epididymal white adipose tissue of Zucker rat sub-chronic fa/fa prediabetic model at 10 mg/kg, po qd for 15 days by microarray analysis relative to control; format: functional
Rattus norvegicus [10] = experiment: Toxicity in […] chronic ob/ob model assessed as serum triglyceride level at 10 mg/kg, po qd for 31 days measured on day 32 (reference value: 329 +/- 36 mg/dl); format: organism-based; conditions: in vivo, 744 h
Rattus norvegicus [11] = experiment: Toxicity in […] chronic ob/ob model assessed as serum triglyceride level at 3 mg/kg, po qd for 31 days measured on day 32 (reference value: 329 +/- 36 mg/dl); format: organism-based; conditions: in vivo, 744 h
Rattus norvegicus [12] = experiment: Toxicity in Zucker rat sub-chronic fa/fa prediabetic model assessed as triglyceride level per gram liver at 10 mg/kg, po qd for 31 days measured on day 32 (reference value: 163.4 +/- 8.3 mg); format: organism-based; conditions: in vivo, 744 h
Rattus norvegicus [13] = experiment: Effect on SFN gene expression in epididymal white adipose tissue of Zucker rat sub-chronic fa/fa prediabetic model at 10 mg/kg, po qd for 15 days by microarray analysis relative to control; format: functional
Rattus norvegicus [14] = experiment: Effect on NDUFA6 gene expression in epididymal white adipose tissue of Zucker rat sub-chronic fa/fa prediabetic model at 10 mg/kg, po qd for 15 days by microarray analysis relative to control; format: functional
Rattus norvegicus [15] = experiment: Antidiabetic activity in po dosed Zucker rat sub-chronic fa/fa prediabetic model assessed as reduction in blood glucose AUC (0 to 120 min) once daily for 31 days measured on day 29 post dose by OGTT; format: functional, organism-based
Rattus norvegicus [16] = experiment: Toxicity in Zucker rat sub-chronic fa/fa prediabetic model assessed as serum BUN level at 50 mg/kg, po qd for 31 days measured on day 32 (reference value: 28.3 +/- […]); format: organism-based; conditions: in vivo, 744 h
Rattus norvegicus [17] = experiment: Effect on UCP3 gene expression in epididymal white adipose tissue of Zucker rat sub-chronic fa/fa prediabetic model at 10 mg/kg, po qd for 15 days by microarray analysis relative to control; format: functional
Rattus norvegicus [18] = experiment: Toxicity in […] chronic ob/ob model assessed as epididymal white adipose tissue weight at 50 mg/kg, po qd for 31 days measured on day 32 (reference value: 3.92 +/- 0.14 g); format: organism-based; conditions: in vivo, 744 h
Rattus norvegicus [19] = experiment: Effect on SUCLG1 gene expression in epididymal white adipose tissue of Zucker rat sub-chronic fa/fa prediabetic model at 10 mg/kg, po qd for 15 days by microarray analysis relative to control; format: functional
[20] = AUC (0 to 24 hrs) in […] model at 3 mg/kg, po qd measured on day 1 post dose; format: ADME, organism-based; set-up: dose 3 mg/kg, time < 24 hr, route oral; conditions: in vivo
Rattus norvegicus [21] = experiment: Toxicity in Zucker rat sub-chronic fa/fa prediabetic model assessed as serum cholesterol level at 50 mg/kg, po qd for 31 days measured on day 32 (reference value: 295 +/- 91 mg/dl); format: organism-based; conditions: in vivo, 744 h
[22] = molecular target: Retinoic acid receptor RXR-alpha (Homo sapiens, UniProt P19793); experiment: Agonist activity at recombinant GST-tagged human RXRalpha LBD assessed as fluorescein-labeled coactivator peptide recruitment preincubated with enzyme followed by coactivator addition by LanthaScreen TR-FRET assay
Rattus norvegicus [23] = experiment: Effect on PFKFB1 gene expression in epididymal white adipose tissue of Zucker rat sub-chronic fa/fa prediabetic model at 10 mg/kg, po qd for 15 days by microarray analysis relative to control; format: functional
[24] = Cmax in Zucker rat sub-chronic fa/fa prediabetic model at 3 mg/kg, po qd for 26 days measured on day 26 post last dose; format: ADME, organism-based; set-up: dose 3 mg/kg, route oral; conditions: in vivo
Rattus norvegicus [25] = experiment: Toxicity in Zucker rat sub-chronic fa/fa prediabetic model assessed as heart weight at 1 mg/kg, po qd for 31 days measured on day 32 (reference value: 1.19 +/- 0.04 g); format: organism-based; conditions: in vivo, 744 h
[26] = Tmax in […] at 15 mg/kg administered via oral gavage by LC-MS analysis; format: ADME, organism-based; conditions: in vivo
Rattus norvegicus [27] = format: functional, Zucker
Homo sapiens = species on record: Homo sapiens; experiment: Inhibition of picrotoxin binding to chloride channel (unknown origin) at 10 uM relative to control
Rattus norvegicus [28] = experiment: Toxicity in Zucker rat sub-chronic fa/fa prediabetic model assessed as brown adipose tissue weight at 1 mg/kg, po qd for 31 days measured on day 32 (reference value: 2.1 +/- 0.3 g); format: organism-based; conditions: in vivo, 744 h
[29] = AUC (0 to 24 hrs) in Zucker rat sub-chronic fa/fa prediabetic model at 3 mg/kg, po qd measured on day 1 post dose; format: ADME, organism-based; set-up: time < 24 hr, dose 3 mg/kg, route oral; conditions: in vivo
[30] = AUC (0 to 24 hrs) in […] model at 3 mg/kg, po qd for 28 days measured on day 28 post last dose; format: ADME, organism-based; set-up: dose 3 mg/kg, time < 24 hr, route oral; conditions: in vivo
[31] = Cmax in […] at 15 mg/kg administered via oral gavage by LC-MS analysis; format: ADME, organism-based; set-up: dose 15 mg/kg, route oral; conditions: in vivo
Rattus norvegicus [32] = experiment: Effect on IL36B gene expression in epididymal white adipose tissue of Zucker rat sub-chronic fa/fa prediabetic model at 10 mg/kg, po qd for 15 days by microarray analysis relative to control; format: functional
[33] = molecular target: Peroxisome proliferator-activated receptor delta (Homo sapiens, UniProt Q03181); experiment: Antagonist activity at recombinant GST-tagged human PPARdelta LBD assessed as inhibition of GW0742-induced fluorescein-labeled coactivator peptide recruitment preincubated with enzyme followed by coactivator addition by LanthaScreen TR-FRET assay
Peroxisome proliferator-activated receptor delta, sequence (Q03181 whole entry, the tested form may be a part): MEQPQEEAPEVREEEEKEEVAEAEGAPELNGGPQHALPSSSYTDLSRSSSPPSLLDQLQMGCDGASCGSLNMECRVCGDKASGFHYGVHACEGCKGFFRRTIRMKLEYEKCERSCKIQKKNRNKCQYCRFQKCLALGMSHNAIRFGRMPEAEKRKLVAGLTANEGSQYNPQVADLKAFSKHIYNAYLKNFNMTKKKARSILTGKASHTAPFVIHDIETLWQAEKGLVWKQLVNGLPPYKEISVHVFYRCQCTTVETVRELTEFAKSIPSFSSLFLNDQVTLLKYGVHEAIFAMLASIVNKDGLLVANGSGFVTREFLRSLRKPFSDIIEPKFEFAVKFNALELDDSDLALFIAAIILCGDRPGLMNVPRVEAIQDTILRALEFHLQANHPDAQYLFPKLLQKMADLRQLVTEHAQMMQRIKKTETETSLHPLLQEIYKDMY

Retinoic acid receptor RXR-alpha, sequence (P19793 whole entry, the tested form may be a part): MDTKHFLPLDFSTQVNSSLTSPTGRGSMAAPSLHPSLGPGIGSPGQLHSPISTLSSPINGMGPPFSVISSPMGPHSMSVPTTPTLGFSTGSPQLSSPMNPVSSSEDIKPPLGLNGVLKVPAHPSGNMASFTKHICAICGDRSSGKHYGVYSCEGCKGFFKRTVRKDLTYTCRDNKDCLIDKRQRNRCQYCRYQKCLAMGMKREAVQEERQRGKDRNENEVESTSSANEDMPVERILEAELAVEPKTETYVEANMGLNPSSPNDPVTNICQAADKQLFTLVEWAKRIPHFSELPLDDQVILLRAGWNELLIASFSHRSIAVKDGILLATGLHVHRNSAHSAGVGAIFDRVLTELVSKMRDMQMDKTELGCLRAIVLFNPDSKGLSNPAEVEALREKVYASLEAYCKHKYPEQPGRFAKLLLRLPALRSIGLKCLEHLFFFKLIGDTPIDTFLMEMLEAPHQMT
Peroxisome proliferator-activated receptor alpha, sequence (Q07869 whole entry, the tested form may be a part): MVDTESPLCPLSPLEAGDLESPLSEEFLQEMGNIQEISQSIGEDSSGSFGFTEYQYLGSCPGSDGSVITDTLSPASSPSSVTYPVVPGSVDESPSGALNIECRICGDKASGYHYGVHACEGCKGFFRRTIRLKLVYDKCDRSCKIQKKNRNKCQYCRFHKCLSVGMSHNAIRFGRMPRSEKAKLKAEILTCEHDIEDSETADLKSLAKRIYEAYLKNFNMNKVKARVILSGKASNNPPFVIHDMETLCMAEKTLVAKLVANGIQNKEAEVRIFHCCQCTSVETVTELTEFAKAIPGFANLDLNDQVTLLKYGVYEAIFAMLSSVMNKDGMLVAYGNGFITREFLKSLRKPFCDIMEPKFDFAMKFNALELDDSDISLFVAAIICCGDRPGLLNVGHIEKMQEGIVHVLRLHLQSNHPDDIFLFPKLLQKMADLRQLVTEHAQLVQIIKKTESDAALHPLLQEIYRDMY

For `CN1CC[C@@H](N2C(=O)S/C(=C\c3ccc4c(cnn4Cc4ccc(Cl)cc4C(F)(F)F)c3)C2=O)[C@H](F)C1`, the EC50 [1] was over 10 µM, the “fold change (FC)” value (Rattus norvegicus [2]) was -1.209 and the “fold change (FC)” value (Rattus norvegicus [3]) was -1.387. The Cmax [4] was 725 ng/mL, the Activity (Rattus norvegicus [5]) was 43.5 g and the “fold change (FC)” value (Rattus norvegicus [6]) was 2.249. For the same compound, the “fold change (FC)” value (Rattus norvegicus [7]) was -1.201, the Activity (Rattus norvegicus [8]) was 19.1 g and the “fold change (FC)” value (Rattus norvegicus [9]) was 2.122. The Activity (Rattus norvegicus [10]) was 138 mg/dL, the Activity (Rattus norvegicus [11]) was 223 mg/dL and the Activity (Rattus norvegicus [12]) was 93 mg. For the same compound, the “fold change (FC)” value (Rattus norvegicus [13]) was -1.468, the “fold change (FC)” value (Rattus norvegicus [14]) was 1.277 and the Activity (Rattus norvegicus [15]) was “Dose-dependent effect”. For the same compound, the Activity (Rattus norvegicus [16]) was 23.9 mg/dL, the “fold change (FC)” value (Rattus norvegicus [17]) was 2.305 and the Activity (Rattus norvegicus [18]) was 2.95 g. For the same compound, the “fold change (FC)” value (Rattus norvegicus [19]) was 1.401, the AUC(0-t) at 24 h [20] was 1400 ng·h/mL and the Activity (Rattus norvegicus [21]) was 203 mg/dL. For the same compound, the EC50 [22] was over 10 µM, the “fold change (FC)” value (Rattus norvegicus [23]) was 1.634 and the Cmax [24] was 1220 ng/mL. The Activity (Rattus norvegicus [25]) was 1.16 g, the Tmax [26] was 2.5 h and the Activity (Rattus norvegicus [27]) was 27017 mg·min/dL. The inhibition (Homo sapiens) was 50%, the Activity (Rattus norvegicus [28]) was 3.7 g and the AUC(0-t) at 24 h [29] was 5980 ng·h/mL. For the same compound, the AUC at 24 h [30] was 2150 ng·h/mL, the Cmax [31] was 4020 ng/mL and the “fold change (FC)” value (Rattus norvegicus [32]) was -1.232. The IC50 [33] was over 10 µM.
